How the values were obtained:
[1] = Single dose pharmacokinetics of VRx-3996 in patients given oral nanatinostat and valganciclovir; format: in vivo, humans; conditions: Treatment C = 10 mg VRx-3996 p.o. and 900 mg Valganciclovir p.o., N 4
[2] = molecular target: HDAC1 (Homo sapiens, UniProt Q13547); experiment: HDAC activity assay (fluorescence); format: biochemical; conditions: HDAC1, 10 μM HDAC Substrate 3
Description: (§1) Briefly, all of the compounds are dissolved in DMSO. A series of dilutions of the compounds were prepared with 10% DMSO in HDAC assay buffer and 5 μl of the dilution was added to a 50 μl reaction so that the final concentration of DMSO is 1% in all of reactions. The compounds were pre-incubated in duplicate at RT for 1 hour in a mixture containing HDAC assay buffer, 5 μg BSA, HDAC enzyme (see Table 7) and a the particular HDACi. After 1 hour, the enzymatic reactions were initiated by the addition of HDAC substrate (BPS Bioscience) to a final concentration of 10 μM or 2 μM. The enzymatic reaction proceeded for 30 minutes at 37° C.
(§2) HDAC activity assays were performed in duplicates at each concentration. The fluorescent intensity data were analyzed using the computer software, Graphpad Prism. In the absence of the compound, the fluorescent intensity (Ft) in each data set was defined as 100% activity. In the absence of HDAC, the fluorescent intensity (Fb) in each data set was defined as 0% activity. The percent activity in the presence of each compound was calculated according to the following equation: % activity=(F−Fb)/(Ft−Fb), where F=the fluorescent intensity in the presence of the compound. […]

[3] = molecular target: HDAC3/NCOR2 (Homo sapiens, UniProt O15379); experiment: HDAC activity assay (fluorescence); format: biochemical; conditions: HDAC3/NCOR2, 10 μM HDAC Substrate 3
Description: as §1, §2

[4] = molecular target: HDAC2 (Homo sapiens, UniProt Q92769); format: biochemical; conditions: HDAC2, 10 μM HDAC Substrate 3
Description: as §1, §2

[5] = molecular target: T1, HDAC6 (Homo sapiens, UniProt Q9UBN7); conditions: HDAC6, 10 μM HDAC Substrate 3
T1 sequence (Q9UBN7 1-1215): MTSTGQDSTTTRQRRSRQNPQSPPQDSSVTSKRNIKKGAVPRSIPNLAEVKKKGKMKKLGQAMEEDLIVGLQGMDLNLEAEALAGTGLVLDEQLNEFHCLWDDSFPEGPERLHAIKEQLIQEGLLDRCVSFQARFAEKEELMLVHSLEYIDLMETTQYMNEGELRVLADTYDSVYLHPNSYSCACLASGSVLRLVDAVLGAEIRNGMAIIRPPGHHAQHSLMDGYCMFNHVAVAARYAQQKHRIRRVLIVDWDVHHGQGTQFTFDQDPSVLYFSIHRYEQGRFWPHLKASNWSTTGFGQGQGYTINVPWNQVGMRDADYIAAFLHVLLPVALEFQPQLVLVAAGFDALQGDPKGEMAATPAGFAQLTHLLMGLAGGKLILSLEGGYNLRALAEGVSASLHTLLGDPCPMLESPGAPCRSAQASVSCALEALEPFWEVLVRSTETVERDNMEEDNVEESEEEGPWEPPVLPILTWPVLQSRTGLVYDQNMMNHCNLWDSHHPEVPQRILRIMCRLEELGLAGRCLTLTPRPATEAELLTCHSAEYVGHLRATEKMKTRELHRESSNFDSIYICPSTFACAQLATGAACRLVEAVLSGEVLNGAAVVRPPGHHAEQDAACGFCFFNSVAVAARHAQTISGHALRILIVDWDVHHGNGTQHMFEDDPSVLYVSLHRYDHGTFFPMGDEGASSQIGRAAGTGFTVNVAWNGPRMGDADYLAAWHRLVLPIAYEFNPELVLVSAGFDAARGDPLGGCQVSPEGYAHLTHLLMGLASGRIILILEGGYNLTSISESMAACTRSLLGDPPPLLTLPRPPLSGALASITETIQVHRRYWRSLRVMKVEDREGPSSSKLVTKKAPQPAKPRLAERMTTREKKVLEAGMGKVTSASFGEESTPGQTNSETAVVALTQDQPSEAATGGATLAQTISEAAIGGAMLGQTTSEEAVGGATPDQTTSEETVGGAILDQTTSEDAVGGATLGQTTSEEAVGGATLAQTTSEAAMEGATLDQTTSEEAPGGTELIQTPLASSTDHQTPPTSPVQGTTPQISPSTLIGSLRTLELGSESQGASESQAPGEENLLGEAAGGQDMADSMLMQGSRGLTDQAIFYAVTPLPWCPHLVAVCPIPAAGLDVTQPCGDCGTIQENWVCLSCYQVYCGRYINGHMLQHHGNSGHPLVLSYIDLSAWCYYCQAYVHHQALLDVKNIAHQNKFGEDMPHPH
Description: as §1, §2

[6] = test system: Histone 3 acetylation in peripheral blood mononuclear cells; experiment: H3 acetylation in peripheral blood mononuclear cells of healthy donors (flow cytometry); format: cell-based, human
Source text: Percentage of cells with H3 acetylation, as determined by flow cytometry, is shown.
Since H3 acetylation is a pharmacodynamic biomarker of Nstat activity, acetylation of H3 was examined in treated cells.

[7] = test system: P3HR1 Burkitt's lymphoma cells; experiment: Cell death by 7AAD staining after Nstat, washout, then ganciclovir
Description: P3HR1 Burkitt's lymphoma cells were incubated with DMSO (solvent control) or Nstat for 3 days. After that time cell cultures were washed re-fed with ganciclovir (GCV) for an additional 3 days. All test conditions were run in triplicate. Cell death was measured by 7AAD staining.

[8] = in vivo; cited from earlier work

Sequence of HDAC1 (Q13547 whole entry): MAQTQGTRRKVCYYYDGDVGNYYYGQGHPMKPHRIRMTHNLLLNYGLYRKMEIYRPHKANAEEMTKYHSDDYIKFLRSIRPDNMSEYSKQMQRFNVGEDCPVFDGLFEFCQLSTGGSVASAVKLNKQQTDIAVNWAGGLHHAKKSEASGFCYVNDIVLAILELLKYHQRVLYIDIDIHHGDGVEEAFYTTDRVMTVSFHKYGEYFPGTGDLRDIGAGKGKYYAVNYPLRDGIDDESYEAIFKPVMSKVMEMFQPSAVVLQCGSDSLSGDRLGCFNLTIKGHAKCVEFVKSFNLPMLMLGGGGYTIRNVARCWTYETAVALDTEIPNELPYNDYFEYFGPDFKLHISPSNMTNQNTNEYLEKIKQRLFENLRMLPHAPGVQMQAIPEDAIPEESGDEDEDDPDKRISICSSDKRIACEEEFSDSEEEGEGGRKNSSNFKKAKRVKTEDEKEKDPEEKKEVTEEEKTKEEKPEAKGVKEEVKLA
Sequence of HDAC3/NCOR2 (O15379 whole entry): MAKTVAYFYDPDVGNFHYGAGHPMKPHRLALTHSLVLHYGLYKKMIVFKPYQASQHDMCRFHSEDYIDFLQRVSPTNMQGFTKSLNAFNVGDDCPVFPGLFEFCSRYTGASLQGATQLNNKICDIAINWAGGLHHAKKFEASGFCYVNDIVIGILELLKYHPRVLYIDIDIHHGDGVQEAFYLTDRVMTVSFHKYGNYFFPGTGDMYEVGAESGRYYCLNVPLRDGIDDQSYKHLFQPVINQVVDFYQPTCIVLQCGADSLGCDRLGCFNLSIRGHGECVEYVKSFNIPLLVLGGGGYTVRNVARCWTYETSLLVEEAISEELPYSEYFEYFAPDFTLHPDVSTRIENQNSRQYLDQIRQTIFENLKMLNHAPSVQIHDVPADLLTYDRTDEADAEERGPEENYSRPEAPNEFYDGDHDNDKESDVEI
Sequence of HDAC3/NCOR2 (Q9Y618 395-489 partner limits assumed): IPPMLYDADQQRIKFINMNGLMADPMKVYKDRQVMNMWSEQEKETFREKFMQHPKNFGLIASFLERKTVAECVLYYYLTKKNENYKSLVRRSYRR
Sequence of HDAC2 (Q92769 whole entry): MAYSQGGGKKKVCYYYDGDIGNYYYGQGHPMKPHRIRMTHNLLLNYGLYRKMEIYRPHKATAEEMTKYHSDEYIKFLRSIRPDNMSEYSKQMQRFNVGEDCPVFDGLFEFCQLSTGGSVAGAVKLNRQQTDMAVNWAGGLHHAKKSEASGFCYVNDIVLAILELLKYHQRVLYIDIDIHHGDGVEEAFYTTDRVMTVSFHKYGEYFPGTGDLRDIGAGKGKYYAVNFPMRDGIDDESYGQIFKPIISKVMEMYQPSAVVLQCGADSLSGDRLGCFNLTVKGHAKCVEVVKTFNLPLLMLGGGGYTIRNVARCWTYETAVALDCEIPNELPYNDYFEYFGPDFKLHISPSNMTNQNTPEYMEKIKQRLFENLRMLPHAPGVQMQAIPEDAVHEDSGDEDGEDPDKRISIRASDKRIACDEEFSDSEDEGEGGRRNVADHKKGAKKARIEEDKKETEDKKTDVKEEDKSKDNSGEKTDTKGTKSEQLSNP

SMILES | AUC, geometric mean [1] [ng·h/mL] | IC50 [2] [nM] | IC50 [3] [nM] | IC50 [4] [nM] | IC50 [5] [nM] | duration of effect on H3 acetylation ([6]; PBMC from healthy donors, doses down to 10 nM, FIG. 3) | potency in inducing elevated levels of Histone 3 acetylation ([6]; PBMC of healthy volunteers, even at a dose of 100 nM, FIG. 2) | increase of cytotoxic activity when combined with Ganciclovir [7] [%] | cell cytotoxicity when combined with ganciclovir ([7]; EBV infected cell line P3HR1, effect seen even after Nstat removal) | elimination half-life [8]
O=C(NO)c1cnc(N2C[C@@H]3[C@H](C2)[C@H]3NCc2ccc3cc(F)ccc3n2)nc1 [Nstat, 2-((1R,5S,6s)-6-(((6-fluoroquinolin-2-yl)methyl)amino)-3-azabicyclo[3.1.0]hexan-3-yl)-N-hydroxypyrimidine-5-carboxamide] | 322 | 3.6 | 12 | 12 | 450 | long-lasting | much more potent than entinostat | ~40 | increases cell cytotoxicity | –
Nc1ccccc1NC(=O)c1ccc(CNC(=O)OCc2cccnc2)cc1 [MS-275, entinostat] | – | – | – | – | – | – | – | – | – | approximately 36 hours

Source: patent US20220226322A1, “METHODS OF TREATING VIRALLY ASSOCIATED CANCERS WITH HISTONE DEACETYLASE INHIBITORS” (priority 2019, published 2022)
